Patent US10421774B2 (priority 2016, dated 2019)

Tests used:
Assay in all cases: microbe, parasite or virus in culture
Type in all cases: cell-based, HIV-1
[1] = tested on: A364V site directed mutant virus; conditions: Human immunodeficiency virus 1, MT2, read-out: A364V EC50
Procedure: (§1) Cells. MT-2 cells and 293T cells were obtained from the NIH AIDS Research and Reference Reagent Program. Cell lines were sub-cultured twice a week in either RPMI 1640 (MT-2) or DMEM (293T, HeLa) media supplemented with 10% heat inactivated fetal bovine serum (FBS), 100 units/mL of penicillin G and 100 μg/mL of streptomycin. The DMEM medium was additionally supplemented with 10 mM HEPES buffer, pH 7.55, 2 mM L-glutamine and 0.25 μg/mL of amphotericin B.
(§2) Viruses. NLRepRluc virus contains the Renilla luciferase marker in place of the viral nef gene. The proviral plasmid pNLRepRluc was constructed at Bristol-Myers Squibb, starting from a proviral NL4-3 clone (B subtype) that was obtained from the NIH AIDS Research and Reference Reagent Program. The parental recombinant wild type (WT) virus (NLRepRlucP373S) was derived from NLRepRluc and contains the additional substitution of P373 for serine in Gag (within the SP1 spacer), the most common 373 variation in subtype B. Other recombinant viruses (A364V, V370A/ΔT371 and the “T3325 triple” (T332S/V362I+HIV-1 protease R41G)) were generated by site-directed mutagenesis of plasmid pNLRepRlucP373S to introduce those amino acid substitutions in Gag and protease. Recombinant virus DNA was then used to generate virus stocks by transfection of 293T cells (Lipofectamine PLUS kit, Invitrogen). Titers of virus stocks were determined using a luciferase assay (Dual-Luciferase® Reporter Assay System, Promega, Milwaukee, Wis., USA) endpoint.
(§3) Multiple cycle drug susceptibility assay. Pellets of MT-2 cells were infected with NLRepRlucP373S Gag site-directed viruses, where initial inocula of the reporter strains were normalized using equivalent endpoint luciferase activity signals. Such cell-virus mixtures were resuspended in medium, incubated for 1-hour at 37° C./CO2, and added to compound containing 96-well plates at a final cell density of 10,000 cells per well. The test compounds were 3-fold serially diluted in 100% DMSO, and assayed at a final DMSO concentration of 1%. After 4-5 day incubation at 37° C./CO2, virus yields were determined by Renilla luciferase activity (Dual-Luciferase® Reporter Assay System, Promega). The endpoint luminescence was detected on a Wallac Trilux (PerkinElmer).
(§4) HIV-1 NL4-3 expressing Renilla luciferase gene was converted to the gag V370A/ΔT371 virus by site directed mutagenesis. A364V is a site directed mutant.
(§5) All three recombinant viruses were used as described above in the HIV cell culture assay for the NL4-3 virus.

[2] = tested on: gag V370A/ΔT371 virus; conditions: Human immunodeficiency virus 1, MT2, read-out: V370A/ΔT371 EC50
Procedure: as §1, §2, §3, §4, §5

[3] = tested on: NLRepRlucP373S recombinant wild type (WT) virus; conditions: Human immunodeficiency virus 1, MT2, read-out: WT EC50
Procedure: as §1, §2, §3
(§6) The 50% inhibitory concentrations (EC50S) were calculated by using the exponential form of the median effect equation where Percent Inhibition=1/[1+(EC50/drug conc.^m], where m is a parameter that reflects the slope of the concentration-response curve. Background was taken as the residual signal observed upon inhibition at the highest concentration of a control protease inhibitor, NFV (3 μM).
as §6, with “The 90%” for “The 50%”, “concentrations (EC90S)” for “concentrations (EC50S)”, “where ECF=[(F/(100−F)]^1/H·EC50,” for “where Percent Inhibition=1/[1+(EC50/drug conc.^m],”, “where H” for “where m”

[4] = tested on: T332S/V362I/Pr R41G virus; conditions: Human immunodeficiency virus 1, MT2, read-out: T332S/V362I/pr41G EC50
Procedure: as §1, §2, §3
T332sN362I/Pr R41G (N14.3, B Clade) virus′ was obtained as follows: Selection for resistance of HIV-1 strain […] virus with the HIV maturation inhibitor (MI) compound
At passage 8 virus was harvested and sequenced.
as §5

| Structure (SMILES) | EC50 [1] [nM] | EC50 [2] [nM] | EC50 [3] [nM] | EC50 [4] [nM] |
| --- | --- | --- | --- | --- |
| C=C(C)[C@@H]1CC[C@]2(NCC[C@]3(O)CC[C@H](S(C)(=O)=O)CC3)CC[C@]3(C)[C@H](CC[C@@H]4[C@@]5(C)CC=C(C6=CC[C@@](COc7ncccc7C#N)(C(=O)O)CC6)C(C)(C)[C@@H]5CC[C@]43C)[C@@H]12 [Example A4, (S)-1-(((3-cyanopyridin-2-yl)oxy)methyl)-4-((1R,3aS,5aR,5bR,7aR,11aS,11bR,13aR,13bR)-3a-((2-((1r,4S)-1-hydroxy-4-(methylsulfonyl)cyclohexyl)ethyl)amino)-5a,5b,8,8,11a-pentamethyl-1-(prop-1-en-2-yl)-2,3,3a,4,5,5a,5b,6,7,7a,8,11,11a,11b,12,13,13a,13b-octadecahydro-1H-cyclopenta[a]chrysen-9-yl)cyclohex-3-enecarboxylic acid] | 26 | 6 | 4 | 6 |
| C=C(C)[C@@H]1CC[C@]2(NCCN3CCS(=O)(=O)CC3)CC[C@]3(C)[C@H](CC[C@@H]4[C@@]5(C)CC=C(C6=CCC(CCOc7ncccc7Cl)(C(=O)O)CC6)C(C)(C)[C@@H]5CC[C@]43C)[C@@H]12 (stereo partly drawn) [Example A29, 1-(2-((3-chloropyridin-2-yl)oxy)ethyl)-4-((1R,3aS,5aR,5bR,7aR,11aS,11bR,13aR,13bR)-3a-((2-(1,1-dioxidothiomorpholino)ethyl)amino)-5a,5b,8,8,11a-pentamethyl-1-(prop-1-en-2-yl)-2,3,3a,4,5,5a,5b,6,7,7a,8,11,11a,11b,12,13,13a,13b-octadecahydro-1H-cyclopenta[a]chrysen-9-yl)cyclohex-3-ene-1-carboxylic acid] | 4 | 3 | 5 | 3 |
| C=C(C)[C@@H]1CC[C@]2(NC[C@@H](O)C(=O)O)CC[C@]3(C)[C@H](CC[C@@H]4[C@@]5(C)CC=C(C6=CC[C@](COc7ncccc7C#N)(C(=O)O)CC6)C(C)(C)[C@@H]5CC[C@]43C)[C@@H]12 [Example A15, (R)-4-((1R,3aS,5aR,5bR,7aR,11aS,11bR,13aR,13bR)-3a-(((R)-2-carboxy-2-hydroxyethyl)amino)-5a,5b,8,8,11a-pentamethyl-1-(prop-1-en-2-yl)-2,3,3a,4,5,5a,5b,6,7,7a,8,11,11a,11b,12,13,13a,13b-octadecahydro-1H-cyclopenta[a]chrysen-9-yl)-1-(((3-cyanopyridin-2-yl)oxy)methyl)cyclohex-3-enecarboxylic acid] | 794 | 10 | 3 | 10 |
| C=C(C)[C@@H]1CC[C@]2(NC[C@H](O)C(=O)O)CC[C@]3(C)[C@H](CC[C@@H]4[C@@]5(C)CC=C(C6=CC[C@](COc7ncccc7C#N)(C(=O)O)CC6)C(C)(C)[C@@H]5CC[C@]43C)[C@@H]12 [Example A17, (R)-4-((1R,3aS,5aR,5bR,7aR,11aS,11bR,13aR,13bR)-3a-(((S)-2-carboxy-2-hydroxyethyl)amino)-5a,5b,8,8,11a-pentamethyl-1-(prop-1-en-2-yl)-2,3,3a,4,5,5a,5b,6,7,7a,8,11,11a,11b,12,13,13a,13b-octadecahydro-1H-cyclopenta[a]chrysen-9-yl)-1-(((3-cyanopyridin-2-yl)oxy)methyl)cyclohex-3-enecarboxylic acid] | 3000 | 15 | 3 | 15 |
| C=C(C)[C@@H]1CC[C@]2(NCCN3CCS(=O)(=O)CC3)CC[C@]3(C)[C@H](CC[C@@H]4[C@@]5(C)CC=C(C6=CCC(COc7cc(C(F)(F)F)n(C)n7)(C(=O)O)CC6)C(C)(C)[C@@H]5CC[C@]43C)[C@@H]12 (stereo partly shown) [Example 3] | 2220 | – | 9 | 2170 |
| C=C(C)[C@@H]1CC[C@]2(NCCN3CCS(=O)(=O)CC3)CC[C@]3(C)[C@H](CC[C@@H]4[C@@]5(C)CC=C(C6=CCC(COc7ccncc7)(C(=O)O)CC6)C(C)(C)[C@@H]5CC[C@]43C)[C@@H]12 (stereo partly drawn) [Example 9, 4-((1R,3aS,5aR,5bR,7aR,11aS,11bR,13aR,13bR)-3a-((2-(1,1-dioxidothiomorpholino)ethyl)amino)-5a,5b,8,8,11a-pentamethyl-1-(prop-1-en-2-yl)-2,3,3a,4,5,5a,5b,6,7,7a,8,11,11a,11b,12,13,13a,13b-octadecahydro-1H-cyclopenta[a]chrysen-9-yl)-1-((pyridin-4-yloxy)methyl)cyclohex-3-ene-1-carboxylic acid] | 35 | – | 2 | 14 |
| C=C(C)[C@@H]1CC[C@]2(NCCN3CCS(=O)(=O)CC3)CC[C@]3(C)[C@H](CC[C@@H]4[C@@]5(C)CC=C(C6=CCC(COc7cc(-c8ccccc8)nn7C)(C(=O)O)CC6)C(C)(C)[C@@H]5CC[C@]43C)[C@@H]12 (stereo partly drawn) [Example 2, 4-((1R,3aS,5aR,5bR,7aR,11aS,11bR,13aR,13bR)-3a-((2-(1,1-dioxidothiomorpholino)ethyl)amino)-5a,5b,8,8,11a-pentamethyl-1-(prop-1-en-2-yl)-2,3,3a,4,5,5a,5b,6,7,7a,8,11,11a,11b,12,13,13a,13b-octadecahydro-1H-cyclopenta[a]chrysen-9-yl)-1-(((1-methyl-3-phenyl-1H-pyrazol-5-yl)oxy)methyl)cyclohex-3-ene-1-carboxylic acid] | 1940 | – | 3000 | 3000 |
| C=C(C)[C@@H]1CC[C@]2(NCCN3CCC(S(C)(=O)=O)CC3)CC[C@]3(C)[C@H](CC[C@@H]4[C@@]5(C)CC=C(C6=CCC(COc7cccnc7)(C(=O)O)CC6)C(C)(C)[C@@H]5CC[C@]43C)[C@@H]12 (stereo partly drawn) [Example 11, 4-((1R,3aS,5aR,5bR,7aR,11aS,11bR,13aR,13bR)-5a,5b,8,8,11a-pentamethyl-3a-((2-(4-(methylsulfonyl)piperidin-1-yl)ethyl)amino)-1-(prop-1-en-2-yl)-2,3,3a,4,5,5a,5b,6,7,7a,8,11,11a,11b,12,13,13a,13b-octadecahydro-1H-cyclopenta[a]chrysen-9-yl)-1-((pyridin-3-yloxy)methyl)cyclohex-3-enecarboxylic acid] | 18 | – | 2 | 8 |
| C=C(C)[C@@H]1CC[C@]2(NCCN3CCS(=O)(=O)CC3)CC[C@]3(C)[C@H](CC[C@@H]4[C@@]5(C)CC=C(C6=CCC(COc7cccnc7)(C(=O)O)CC6)C(C)(C)[C@@H]5CC[C@]43C)[C@@H]12 (stereo partly drawn) [Example 10, 4-((1R,3aS,5aR,5bR,7aR,11aS,11bR,13aR,13bR)-3a-((2-(1,1-dioxidothiomorpholino)ethyl)amino)-5a,5b,8,8,11a-pentamethyl-1-(prop-1-en-2-yl)-2,3,3a,4,5,5a,5b,6,7,7a,8,11,11a,11b,12,13,13a,13b-octadecahydro-1H-cyclopenta[a]chrysen-9-yl)-1-((pyridin-3-yloxy)methyl)cyclohex-3-enecarboxylic acid] | 27 | – | 2 | 6 |
